Source: patent US10433551B2, “3-pyridyloxyphenyldihydrouracil compound and use thereof” (Sumitomo Chemical Company, Limited, priority 2016, dated 2019)

Legend:
Type in all cases: cell-based
[1] = test system: damping-off fungi (Pythium ultimum); assay: Test for controlling damping-off fungi, growth in titer plate (absorbance 600 nm); conditions: 1 μL in 150 μL Czapek medium with mycelial suspension, 23° C., five days
Procedure: (§1) In the test examples 1 to 4, a non-treated area means an area in which a test was conducted in the same manner as each test example, except that dimethyl sulfoxide was dispensed in place of the present compound diluted with dimethyl sulfoxide.
(§2) Four point five (4.5) milligrams of the present compound was diluted with 100 μL of dimethyl sulfoxide. One (1) μL portion of the diluted liquid was dispensed into a titer plate (96 wells), and thereto was then dispensed 150 μL of a potato dextrose broth medium (PDB medium) containing zoospores of cucumber phytophthora blight fungi (Phytophthora capsici). This plate was cultured at 27° C. for three days, thereby allowing the cucumber phytophthora blight fungi to undergo proliferation, and the absorbance at 600 nm of each well of the titer plate was then measured to determine a degree of growth of the cucumber phytophthora blight fungi. The efficacy was calculated from the determined degree of growth by the below-mentioned “Equation 1”. […]
(§3) Four point five (4.5) milligrams of the present compound was diluted with 100 μL of dimethyl sulfoxide. […] This plate was cultured at 23° C. for five days, thereby allowing the damping-off fungi to undergo proliferation, and the absorbance at 600 nm of each well of the titer plate was then measured to determine a degree of growth of the damping-off fungi. […]

[2] = test system: barley scald fungi (Rhynchosporium secalis); assay: Test for controlling barley scald fungi, growth in titer plate (absorbance 600 nm); conditions: Test Example 4; 4.5 mg in 100 μL DMSO, 1 μL in 150 μL PDB medium with spores; 18° C., seven days
Procedure: as §1, §2
as §3, with “at 18°” for “at 23°”, “for seven” for “for five”, “the barley scald” for “the damping-off”

[3] = test system: cucumber phytophthora blight fungi (Phytophthora capsici); assay: Test for controlling cucumber phytophthora blight fungi, growth in titer plate (absorbance 600 nm); conditions: Test Example 1; 4.5 mg in 100 μL DMSO, 1 μL in 150 μL PDB medium with zoospores; 27° C., three days
Procedure: as §1
Four point five (4.5) milligrams of the present compound was diluted with 100 μL of dimethyl sulfoxide. One (1) μL portion of the diluted liquid was dispensed into a titer plate (96 wells), and thereto was then dispensed 150 μL of a potato dextrose broth medium (PDB medium) containing zoospores of cucumber phytophthora blight fungi (Phytophthora capsici). This plate was cultured at 27° C. for three days, thereby allowing the cucumber phytophthora blight fungi to undergo proliferation, and the absorbance at 600 nm of each well of the titer plate was then measured to determine a degree of growth of the cucumber phytophthora blight fungi. The efficacy was calculated from the determined degree of growth by the below-mentioned “Equation 1”. As a result, the efficacy of the Present compound was 90% or more. Efficacy=100×(X−Y)/X “Equation 1” where X: Degree of fungal growth in non-treated area Y: Degree of fungal growth in treated area

Measured: efficacy

CCOC(=O)COc1ncccc1Oc1cc(N2C(=O)CC(O)(C(F)(F)F)NC2=O)c(F)cc1Cl (stereo not shown) [Present compound]
≥ 90%: [1]; Test Example 2, 4.5 mg in 100 μL DMSO | [1]; Test Example 3, 1.12 mg in 100 μL DMSO | [2] | [3]
